Reference: a melting point compilation (Tetko et al.; mined from patent text by program, amines drawn as free bases though some values may be those of a salt)

Row | melting point | Structure (SMILES)
1 | 133 to 134 °C | COc1cc(/C=C/C=C/C=O)ccc1OCc1nc(-c2ccccc2)oc1C
2 | 170 to 171 °C | COC(=O)c1ccc(CCc2csc(NC(C)=O)n2)cc1
3 | 210 to 212 °C | COc1ccc(C(=O)Nc2ccccc2)cc1NCc1cccc(C(=O)O)c1
4 | 162 °C | CCc1nc2c(C)nc(C)nc2n1-c1ccc(CCOC(=O)NS(=O)(=O)c2ccc(C)cc2)cc1
5 | > 230 °C | O=[N+]([O-])c1c(O)ccnc1O
6 | 226 to 230 °C | COc1cc(OC)nc(NC(=O)NS(=O)(=O)c2cccnc2-n2cncn2)n1
7 | 160 °C | COc1ccc(C2CCOCC2)c2sc(NC(=O)N(C)[C@H]3CC[C@H](O)CC3)nc12
8 | 82 to 83 °C | CCCCCCCCCCCC#Cc1ccccc1C=CP(=O)(O)O
9 | 126 to 127 °C | COC(=O)C(C)(C)C(Cc1ccc(OC)cc1)NS(=O)(=O)c1ccc(C)cc1 (configuration not stated)
10 | 107 to 108 °C | O=Cc1csc(N2CCOCC2)n1
11 | 110 to 115 °C | COc1cc2cc(C(=O)N3CC(CCl)c4c3cc(NCCNC(=O)OC(C)(C)C)c3ccccc43)[nH]c2c(OC)c1OC (configuration not stated)
12 | 267 °C | CN(C)C(=O)N1CC2(CCN(C(=O)Nc3nnc(-c4ccccc4)s3)CC2)c2ccccc21
13 | 75 to 77 °C | O=C1O[C@H](C(Cl)(Cl)Cl)N2CCC[C@@]12Cc1ccccc1
14 | 98.5 to 104 °C | CCCc1ccc(NC=C(C(=O)OCC)C(=O)c2ccccc2Cl)cc1
15 | 185 to 186 °C | C=C1N(c2ccc(Cl)cc2)C(=O)OC12CCN(C(=O)N1CCN(CCO)CC1)CC2
16 | > 250 °C | CN1CCC(c2c3n(c4ccc(O)cc24)CCC3)CC1
17 | 99.5 to 102 °C | COc1cn(Cc2ccc(OC)c(OC)c2)c(=O)o1
18 | 170 to 172 °C | CCCOc1nc2cccc(C(=O)O)c2n1Cc1ccc(-c2ccccc2-c2nc(=O)o[nH]2)cc1
19 | 270 to 273 °C | Cn1nnnc1-c1cn(C)c2cc(Cl)ccc2c1=O
20 | 142 °C | CCOC(=O)CCCn1c(C(=O)O)cc2cc(C)ccc21
21 | 116 to 120 °C | CC(C)(C)NS(=O)(=O)c1ccc(S(N)(=O)=O)s1
22 | 246 to 247 °C | Cn1c(=O)c2c(Br)cccc2n2cnc(-c3nc(C4CC4)no3)c12
23 | 79 to 80 °C | CON(C)C(=O)Nc1ccc(OCCc2ccc3c(c2)CC(C)(C)O3)nc1
24 | 176 to 178 °C | O=C(Nc1ccc(OCc2ccncc2)c2ccccc12)c1cc(F)cc(OC2CCCCC2)c1
25 | 58 °C | CC(COc1ccccc1)OS(C)(=O)=O (configuration not stated)

Row | melting point | Structure (SMILES)
26 | 118 to 120 °C | O=[N+]([O-])c1c(Cl)c(Cl)cc2nc(Cl)c(Cl)nc12
27 | 136 to 138 °C | CCCOc1nc(NC(C)C(O)c2ccccc2)c2cnn(-c3ccccc3)c2n1 (configuration not stated)
28 | 112 to 113 °C | O=C(O)CCCCCCCCNS(=O)(=O)c1cccc(Cl)c1
29 | 141 to 144 °C | OC(c1ccccc1)C(NCc1ccco1)c1ccccc1 (configuration not stated)
30 | 123 to 125 °C | CC(n1ncnn1)C(O)(c1ccc(Cl)cc1)c1ccc(C(F)(F)F)cc1 (configuration not stated)
31 | 127 to 129 °C | COc1ccc2c(c1)CCC1C2CCC2(C)C(=O)CC(C)C12 (configuration not stated)
32 | 226 °C | COc1cc(Cc2cnc(N)nc2N)cc(C=Cc2ccccc2)c1OC
33 | 91 to 93 °C | O=[N+]([O-])c1ccccc1Sc1ccc(Cl)cc1
34 | 190 to 193 °C | COc1ccc(C(=O)Nc2ccc(Cl)c(Cl)c2)cc1NC(=S)Nc1ccc(S(N)(=O)=O)cc1
35 | 85 to 90 °C | Cc1ccccc1C1(c2ccc(OC(F)F)cc2)N=C(N)N(C)C1=O (configuration not stated)
36 | 158 to 159 °C | CCCCOC(=O)c1ccccc1-c1ccc(Cn2c(CCCC)nc(C(C)(C)O)c2C(=O)O)cc1
37 | 122 to 124 °C | COc1cc2ccc3c4cc(OC)c(OC)cc4ncc3c2cc1OC
38 | 119 to 121 °C | O=C(c1ccc(Cn2cnc3cnccc32)cc1)N1CCOCC1
39 | 127 to 128 °C | COCC1CCCN1S(=O)(=O)c1ccc2c(c1)C1(OCCCO1)C(=O)N2 (configuration not stated)
40 | > 270 °C | Nc1nnc(-c2cc3c(Oc4ccc(Cl)cc4)cncc3s2)s1
41 | 82 to 83 °C | CC(=O)NC(CC(=O)c1ccccc1)OC(C)=O (configuration not stated)
42 | 173 to 175 °C | NC(=O)N(O)CCNC(=O)c1ccc(Oc2ccc(Cl)cc2)o1
43 | 152 °C | O=C(Cl)c1cnc2cc(OCc3ccccc3)c(OCc3ccccc3)cn2c1=O
44 | 138 to 140 °C | CCC1(CC)OC(=O)Nc2ccc(/C(=C/C#N)C(C)C)cc21
45 | 173 to 178 °C | Cc1cccc(C2(CCC(=O)O)NC(=O)NC2=O)c1 (configuration not stated)
46 | 144 to 146 °C | O=C(Nc1ccc(C(=O)N2CCCCc3ccccc32)c(Cl)c1)OCCOc1ccccc1
47 | 142 to 144 °C | CC#COc1ccc2c(=O)c3ccccc3oc2c1
48 | 139 to 140 °C | CCOC(=O)c1c(C)nc2c(c1N)c1ccccc1n2Cc1ccccc1
49 | 116 °C | O=S(=O)(c1ccccc1)N1CCCC1c1ccccc1 (racemic)
50 | 181 to 182 °C | O=C(/C=C/c1ccn(S(=O)(=O)c2ccc(-c3ccccn3)s2)c1)NO

Row | melting point | Structure (SMILES)
51 | 117 to 119 °C | O=C(O)c1cc2cccc(OCC3CO3)c2o1 (configuration not stated)
52 | 239 to 242 °C | CC(C)(OCc1cc(-c2ccc(Cl)cc2)no1)C(=O)N1CCCCC1
53 | 204 °C | COc1cc(N)c(Cl)cc1C(=O)N[C@H]1CCN(Cc2cnccn2)C[C@H]1OC (relative stereo)
54 | 208 °C | CCOC(=O)C1=C(C)N=C(N)C(Cc2ccccc2)(C(=O)OCC)C1c1cccc([N+](=O)[O-])c1 (configuration not stated)
55 | 190 to 199 °C | CC(C)C/C=C(\C[C@H](N)C(=O)O)C(=O)O
56 | 44.5 to 45 °C | COC(=O)CCCc1nc(-c2ccc(C)cc2)oc1C(F)(F)F
57 | 265 to 270 °C | COc1c2ccccc2c(-c2c(-c3c4ccccc4c(OC)c4ccccc34)c2=O)c2ccccc12
58 | 187 to 190 °C | Nc1nc(-c2ccncc2O)nc2c1c(C(F)(F)F)nn2C1CCCC1
59 | 165 to 166 °C | COc1ccc(CCNC(=O)C(F)(F)F)cc1S(N)(=O)=O
60 | > 300 °C | Nc1nc2ncn(O)c2c(=O)[nH]1
61 | 133 to 135 °C | Clc1c(-c2ccccc2)noc1NCC#CI
62 | 225 to 230 °C | O=C(c1ccc(F)cc1)c1nc[nH]n1
63 | 193 °C | O=C(NC(=O)c1ccccc1Br)Nc1cc(C(F)(F)F)c(Cl)cc1Br
64 | 202 to 203 °C | CC(C)(C)OC(=O)NNC(=O)Cc1nc2cc(F)c(N3CCN(C(=O)OC(C)(C)C)CC3)cc2n1C1CC1
65 | 118 to 120 °C | COc1cnn(C2CCCCO2)c(=O)c1Cl (configuration not stated)
66 | 141 to 143 °C | CC(=O)Oc1ccc(Oc2cccc(C(=O)O)c2)cc1
67 | 134 to 135 °C | COc1cc(CO)ccc1OCc1nc(-c2ccccc2)sc1C
68 | 157 °C | CCc1cccc(C)c1COc1cc(C(=O)OC)cc2c1nc(C)n2C
69 | 162 to 163 °C | ClCc1cn2cc(Cl)cc(Cl)c2n1
70 | 50 to 51 °C | C=C1C[C@@H]2C(=O)OC(=O)[C@@H]2C1
71 | 104 °C | N=c1sc2cc(OC(F)(F)F)ccc2n1CCSc1ccccn1
72 | > 250 °C | Cn1ncc(C(=O)N2CCC2)c1C(=O)Nc1cc2nc(-c3ccccc3)nn2cc1F
73 | 217 to 219 °C | COc1c(CC#N)c2c(c3c1OC(C)(C)C3)C(c1cccc(C(=O)NC(C)(C)C(N)=O)c1)=NC(C)(C)C2
74 | 116 to 118 °C | O=C1c2ccc(O)cc2C(=O)N1c1ccccc1
75 | 237 to 239 °C | CC(=O)Nc1ccc(Cn2c3c(c4cc(F)cc(F)c42)CCCC3CC(=O)O)cc1 (configuration not stated)

Row | melting point | Structure (SMILES)
76 | 160 to 162 °C | O=C(CC(NC(=O)C(F)(F)F)C(=O)O)c1ccc2c(c1)CCO2 (configuration not stated)
77 | 96 °C | N#Cc1cc([N+](=O)[O-])ccc1NC(=O)C(F)(OC(F)(F)C(F)(F)C(F)(F)F)C(F)(F)F (configuration not stated)
78 | 128 to 129 °C | O=C1OC(CN2CCC(O)(c3ccc(F)cc3)CC2)CN1c1ccccc1 (configuration not stated)
79 | 285 to 287 °C | Cc1cc(-c2ccc(Cl)cc2)n2ncc(C#N)c2n1
80 | 191 to 194 °C | Nc1cc(-c2ccco2)ccc1Nc1cccc(-n2ccnc2)c1
81 | 150 °C | COc1cccc(OC)c1-c1cc(C(=O)NC2(C(=O)O)C3CC4CC(C3)CC2C4)nn1-c1ccc([N+](=O)[O-])cc1C (configuration not stated)
82 | 132 to 134 °C | CC1OC(O)CC(NC(=O)C(F)(F)F)C1C (configuration not stated)
83 | 93.5 to 94.5 °C | Cc1noc(Cc2ccccc2Nc2c(Cl)cccc2Cl)n1
84 | 150 °C | COc1ccc(CN(C)CCCOc2ccc(NC(=O)c3cccc4c(=O)c5cccc(F)c5[nH]c34)cc2)cc1OC
85 | 197 to 199 °C | O=C(Nc1ccc(C(F)(F)F)cc1)Nc1nc(OCC(F)(F)F)cc(C(F)(F)F)n1
86 | 120 °C | O=C(Cl)c1cc2ccccc2[nH]1
87 | > 250 °C | O=C(Nc1cc[nH]c(=O)n1)OCc1ccccc1
88 | 52 °C | COC(=O)c1ccc(C(F)(F)F)cc1C#N
89 | > 240 °C | N#CC1=C(C2CCCN2)Nc2n[nH]cc2C1c1cccc2nonc12 (configuration not stated)
90 | 152 to 153 °C | CCOCc1nc2cnc3cc(OCCNC(=O)OC(C)(C)C)ccc3c2n1CC1COC(C)(C)O1 (configuration not stated)
91 | 260 to 261 °C | CC1=Nc2ccccc2S(=O)(=O)N1
92 | 128 to 132 °C | CN(C)C(=O)OCCOc1ccc(CC(NC(=O)OC(C)(C)C)C(O)CNCC(O)C(Cc2ccccc2)NC(=O)O)cc1 (configuration not stated)
93 | 120 to 121 °C | CC1(C)CN(C2CCN(c3ccc(F)c(Cl)c3)C2=O)C1=O (configuration not stated)
94 | 135 to 136 °C | COc1cc2ncnc(N3CCN(C(=O)NCc4ccc(C(C)C)cc4)CC3)c2cc1OC
95 | 44 to 45 °C | COC(=O)Cc1ccc(OCCNC(=O)OCc2ccccc2)c(F)c1
96 | 111 to 117 °C | O=c1[nH]c(-c2ccc(CCCCCl)cc2)cs1
97 | 146 to 147 °C | O=C(O)C1CCCN2CC(CS)C(=O)N12 (configuration not stated)
98 | 173 to 174 °C | COC(=O)c1[nH]c2c(C)ccc(C)c2c1Br

Row | Structure (SMILES) | melting point
99 | CN1C(=S)N(c2ccc(C#N)c(C(F)(F)F)c2)C(=O)C1(CO)CO | 169 to 170 °C
100 | CNC1=Nc2ccc(Cl)cc2C(c2ccccc2F)=NC1 | 204 to 206 °C
101 | Cc1nnc2n1-c1ccc(Cl)cc1C(N1CC=CCC1)=NC2 | 192 to 194 °C
102 | O=c1[nH]c2ccc(F)cc2c(=O)n1-c1ccc(Cl)cc1Cl | 313 to 314 °C
